Legend:
human CDK2/cycE1 = human CDK2/cycE1 (Homo sapiens (Human), UniProt P24941); assay: CDK2 IC50 (ADP-Glo kinase assay); format: biochemical; conditions: ATP 20 μM, histone H1 substrate
Protocol: A reaction mixture (6 μL) containing the following components was prepared: 60 mM HEPES (60 mM, pH 7.5), sodium orthovanadate (3 μM), PEG-20000 (50 μg/mL), DTT (1.2 mM), MgCl2 (3 mM), purified human CDK2/cycE1 (4 μg/mL), histone H1 (50 μg/mL), ATP (20 μM) and test compound at the appropriate concentration such that the final concentration of DMSO was 1% w/w. The reaction mixture was incubated at 30° C. for 75 min and then stopped by the addition of ADP-Glo Reagent (6 μL). The reaction was incubated at 25° C. for 1 h to deplete the remaining ATP. Subsequently, Kinase Detection Reagent (12 μL) was added and the reaction was allowed to proceed for 1 h at 25° C. before analysis by luminescence measurement using an Envision Plate Reader (Perkin Elmer).

human CDK7/cycH/MAT1 = human CDK7/cycH/MAT1 (Homo sapiens (Human), UniProt P50613); assay: CDK7 IC50 (ADP-Glo kinase assay); format: biochemical; conditions: for IC50: ATP 8 μM, CDKtide substrate; for Ratio CDK2/CDK7: CDK2 IC50 / CDK7 IC50 selectivity; for CDK2/CDK7 Selectivity: Improvement vs. REF-001: ratio of CDK2/CDK7 ratios; for CDK7 Potency: Improvement vs. REF-001: ratio of CDK7 IC50 of REF-001 to compound
Protocol: (§1) A reaction mixture (6 μL) containing the following components was prepared: 60 mM HEPES (60 mM, pH 7.5), sodium orthovanadate (3 μM), PEG-20000 (50 μg/mL), DTT (1.2 mM), MgCl2 (3 mM), MnCl2 (3 mM), purified human CDK7/cycH/MAT1 (4 μg/mL), CDKtide (10 μM), ATP (8 μM) and test compound at the appropriate concentration such that the final concentration of DMSO was 1% w/w. The reaction mixture was incubated at 30° C. for 30 min and then stopped by the addition of ADP-Glo Reagent (6 μL). The reaction was incubated at 25° C. for 1 h to deplete the remaining ATP. Subsequently, Kinase Detection Reagent (12 μL) was added and the reaction was allowed to proceed for 1 h at 25° C. before analysis by luminescence measurement using an Envision Plate Reader (Perkin Elmer).

human CDK9/cycK = human CDK9/cycK (Homo sapiens (Human), UniProt P50750); assay: CDK9 IC50 (ADP-Glo kinase assay); format: biochemical; conditions: ATP 8 μM, CDKtide substrate
Protocol: In addition to those mentioned above for Method 1: • Human CDK9/cycK (Promega, V4104). • CDKtide (SignalChem, C06-58).
as §1, with “mM),” for “mM), MnCl2 (3 mM),”, “human CDK9/cycK (2.5” for “human CDK7/cycH/MAT1 (4”, “CDKtide (35” for “CDKtide (10”, “for 60” for “for 30”

[1] = Human Plasma Protein Binding (PPB), RED device; format: in vitro ADME; conditions: for Free Fraction: Improvement vs. REF-001: human plasma; for Human PPB / fraction unbound at 240 min, 5 µM: human plasma pH 7.4, 37° C., 240 min
Protocol: Method 4: Human Plasma Protein Binding (PPB)
Materials and solutions: • Human Plasma (Sera Labs, […]). • Bupropion hydrochloride (Sigma, B102). • DPBS (Sigma, D8537). • Formic Acid (Sigma, F0507). • RED Device Single Use (Life Technologies, 90006). • Internal standard solution preparation: A solution of bupropion hydrochloride (50 μL, 10 mM in DMSO) was combined with 0.1% formic acid (1 mL) in acetonitrile (1000 mL).
Once frozen plasma was defrosted and adjusted to pH 7.4 using 1 M lactic acid solution and a portion of this mixture (792 μL) combined with each test compound solution (8 μL, 0.5 mM in DMSO). Portions of the resultant spiked plasma (200 μL) were added to sample compartments of the RED device. DBPS (350 μL) was added to each corresponding buffer compartment. An initial sample (50 μL) was taken and then the RED plate was sealed and incubated at 37° C. for 240 min on an orbital shaker (200 rpm) in a humidified CO2 (5%) atmosphere, alongside plasma and DBPS samples. Each sample well was treated with internal standard solution (300 μL). Aliquots (50 μL) were removed from each buffer well and sample well and replaced with incubated plasma (50 μL) or incubated DPBS (50 μL) respectively. The plate was sealed and centrifuged (3500 rpm, 15 min). Aliquots of the supernatant (100 μL) were combined with water (50 μL) for analysis using a Waters TQS Mass Spectrometer.

MDR1 = MDR1 (Homo sapiens (Human), UniProt P08183); assay: MDCK-MDR1 Efflux Ratio; format: in vitro ADME; conditions: dog, MDCK-MDR1, pH 7.4, HBSS pH 7.4, 37° C.
Protocol: Method 5: MDCK-MDR1 Efflux Ratio
Materials and solutions: • MDCK/MDR1 Ready™ cell plate (Readycell). • High Glucose Cell Culture Medium (Sigma, D5671) supplemented with: 10% FBS, 1% Glutamine 200 mM, 1% Penicillin (10,000 U/mL)—Streptomycin (10 mg/mL). • HBSS Buffer (Gibco, 14065-049). • Internal standard: 0.5 μM Bupropion in acetonitrile/0.1% formic acid (aq) (1:1 v/v).
HBSS assay buffer was prepared at pH 7.4 and warmed to 37° C. The cell culture media was removed from the Readycell plate. The Basal cells were washed with HBSS buffer (3×225 μL) and the Apical cells were washed with HBSS buffer (3×75 μL). The cells were warmed to 37° C. in a humidified CO2 (5%) atmosphere and shaken at 250 rpm for 30 min. Compound and standard solutions were prepared by diluting each compound (10 μL, 1 mM in DMSO) with HBSS (990 μL). The buffer was carefully removed from the Basal cell plate, followed by the Apical cell plate. HBSS buffer (225 μL) and compound solution (250 μL) were added to the Basal cell plate. An aliquot (25 μL) of the solutions were combined with internal standard (75 μL) and refrigerated for use as the t=0 h sample. HBSS buffer (75 μL) and compound solution (100 μL) were added to the Apical cell plate. An aliquot (25 μL) was taken and processed in the same manner as for the Basal cell plate. […]

BCRP = BCRP (Homo sapiens (Human), UniProt Q9UNQ0); assay: MDCK-BCRP Efflux Ratio; format: in vitro ADME; conditions: dog, pH 7.4, HBSS pH 7.4, 37° C.
Source text: Method 6: MDCK-BCRP Efflux Ratio
Essentially the same as Method 5, but using MDCK/BCRP Ready™ cell plates (Readycell) in place of MDCK/MDR1 plates.

[2] = test system: MCF-7 breast cancer cell line; conditions: with 4-hydroxytamoxifen or Faslodex, ERα-positive MCF-7 cells; cited from earlier work

human CDK7/cycH/MAT1, sequence (P50613 whole entry): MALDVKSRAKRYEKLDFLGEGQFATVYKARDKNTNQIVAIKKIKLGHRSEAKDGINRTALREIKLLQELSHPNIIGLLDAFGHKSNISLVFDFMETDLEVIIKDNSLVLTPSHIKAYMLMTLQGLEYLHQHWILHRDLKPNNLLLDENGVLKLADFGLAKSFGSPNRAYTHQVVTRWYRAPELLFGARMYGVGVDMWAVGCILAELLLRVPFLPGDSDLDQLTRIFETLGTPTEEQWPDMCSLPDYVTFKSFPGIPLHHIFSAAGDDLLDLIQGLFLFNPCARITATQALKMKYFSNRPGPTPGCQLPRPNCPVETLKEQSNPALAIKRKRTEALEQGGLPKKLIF
human CDK7/cycH/MAT1, sequence (P51946 whole entry partner): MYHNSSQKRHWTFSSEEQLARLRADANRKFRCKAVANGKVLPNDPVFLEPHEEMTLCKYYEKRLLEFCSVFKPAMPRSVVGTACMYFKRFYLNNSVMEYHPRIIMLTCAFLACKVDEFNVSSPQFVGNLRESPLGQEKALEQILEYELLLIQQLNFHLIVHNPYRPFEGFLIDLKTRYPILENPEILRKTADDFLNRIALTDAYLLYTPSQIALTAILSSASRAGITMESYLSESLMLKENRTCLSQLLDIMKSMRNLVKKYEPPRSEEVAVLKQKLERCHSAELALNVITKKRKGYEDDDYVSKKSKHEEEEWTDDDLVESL
human CDK7/cycH/MAT1, sequence (P51948 whole entry partner): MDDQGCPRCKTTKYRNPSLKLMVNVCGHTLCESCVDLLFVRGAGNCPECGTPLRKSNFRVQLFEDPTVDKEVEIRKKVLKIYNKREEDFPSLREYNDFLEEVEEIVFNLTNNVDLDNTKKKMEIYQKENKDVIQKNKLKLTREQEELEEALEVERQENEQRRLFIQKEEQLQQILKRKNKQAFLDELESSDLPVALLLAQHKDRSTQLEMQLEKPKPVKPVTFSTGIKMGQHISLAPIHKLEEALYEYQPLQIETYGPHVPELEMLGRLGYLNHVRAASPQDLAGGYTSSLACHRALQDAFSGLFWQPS
human CDK9/cycK, sequence (P50750 whole entry): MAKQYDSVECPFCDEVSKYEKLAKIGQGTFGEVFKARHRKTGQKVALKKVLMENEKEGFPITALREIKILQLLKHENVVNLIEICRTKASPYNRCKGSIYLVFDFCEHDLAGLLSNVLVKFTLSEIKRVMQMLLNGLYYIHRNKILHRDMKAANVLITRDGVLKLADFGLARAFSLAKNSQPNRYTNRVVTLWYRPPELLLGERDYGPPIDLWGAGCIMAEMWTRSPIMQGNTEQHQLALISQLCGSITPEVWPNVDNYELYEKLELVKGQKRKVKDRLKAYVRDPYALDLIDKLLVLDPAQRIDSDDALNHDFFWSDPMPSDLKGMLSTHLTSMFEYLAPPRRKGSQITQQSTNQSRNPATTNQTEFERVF
human CDK9/cycK, sequence (O75909 whole entry partner): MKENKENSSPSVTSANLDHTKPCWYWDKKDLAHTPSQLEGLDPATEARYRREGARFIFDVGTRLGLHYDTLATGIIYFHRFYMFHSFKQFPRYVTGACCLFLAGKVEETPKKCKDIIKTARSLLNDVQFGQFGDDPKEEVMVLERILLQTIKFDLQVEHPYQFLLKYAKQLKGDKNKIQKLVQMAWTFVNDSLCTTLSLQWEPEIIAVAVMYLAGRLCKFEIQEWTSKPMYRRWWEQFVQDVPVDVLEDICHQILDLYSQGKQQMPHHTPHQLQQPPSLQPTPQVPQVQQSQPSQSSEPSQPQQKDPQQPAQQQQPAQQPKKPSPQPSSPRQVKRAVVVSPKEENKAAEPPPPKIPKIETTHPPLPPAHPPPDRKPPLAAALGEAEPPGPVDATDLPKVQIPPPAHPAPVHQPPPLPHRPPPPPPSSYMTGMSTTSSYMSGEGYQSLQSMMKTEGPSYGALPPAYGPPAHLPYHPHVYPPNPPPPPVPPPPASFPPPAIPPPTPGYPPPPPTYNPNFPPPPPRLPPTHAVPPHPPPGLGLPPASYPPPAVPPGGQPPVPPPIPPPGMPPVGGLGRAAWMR
MDR1, sequence (P08183 whole entry): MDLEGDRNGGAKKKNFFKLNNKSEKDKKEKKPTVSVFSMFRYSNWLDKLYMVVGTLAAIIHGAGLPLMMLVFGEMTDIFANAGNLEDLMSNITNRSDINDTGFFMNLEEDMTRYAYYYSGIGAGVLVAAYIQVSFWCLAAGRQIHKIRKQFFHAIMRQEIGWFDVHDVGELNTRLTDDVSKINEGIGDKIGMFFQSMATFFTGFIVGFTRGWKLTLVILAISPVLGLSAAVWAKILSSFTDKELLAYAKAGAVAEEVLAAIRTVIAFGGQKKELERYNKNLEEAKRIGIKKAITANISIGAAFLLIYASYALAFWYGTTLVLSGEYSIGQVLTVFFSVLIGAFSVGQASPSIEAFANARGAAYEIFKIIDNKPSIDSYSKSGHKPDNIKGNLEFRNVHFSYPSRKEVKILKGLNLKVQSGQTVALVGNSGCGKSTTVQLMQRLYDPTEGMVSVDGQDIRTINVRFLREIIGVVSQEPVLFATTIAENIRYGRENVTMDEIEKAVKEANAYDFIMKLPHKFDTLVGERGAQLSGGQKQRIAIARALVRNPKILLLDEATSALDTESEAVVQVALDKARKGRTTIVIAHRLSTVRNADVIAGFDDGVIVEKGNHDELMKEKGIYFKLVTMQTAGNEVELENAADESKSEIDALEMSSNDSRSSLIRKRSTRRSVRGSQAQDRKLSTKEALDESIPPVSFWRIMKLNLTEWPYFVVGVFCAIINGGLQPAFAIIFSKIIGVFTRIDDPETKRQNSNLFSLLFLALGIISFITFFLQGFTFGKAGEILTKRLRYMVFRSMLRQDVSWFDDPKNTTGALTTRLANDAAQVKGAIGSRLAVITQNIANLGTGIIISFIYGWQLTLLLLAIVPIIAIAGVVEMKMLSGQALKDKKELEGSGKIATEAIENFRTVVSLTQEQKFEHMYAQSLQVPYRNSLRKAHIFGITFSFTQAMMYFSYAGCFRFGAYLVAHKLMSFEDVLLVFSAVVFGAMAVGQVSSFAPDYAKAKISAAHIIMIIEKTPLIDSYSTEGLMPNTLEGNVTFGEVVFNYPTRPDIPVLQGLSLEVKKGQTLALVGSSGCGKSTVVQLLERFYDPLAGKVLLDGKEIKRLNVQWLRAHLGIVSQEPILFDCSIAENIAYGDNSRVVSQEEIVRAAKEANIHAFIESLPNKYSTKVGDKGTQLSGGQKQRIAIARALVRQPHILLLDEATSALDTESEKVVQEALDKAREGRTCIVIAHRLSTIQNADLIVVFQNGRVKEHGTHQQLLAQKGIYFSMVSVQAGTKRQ
BCRP, sequence (Q9UNQ0 whole entry): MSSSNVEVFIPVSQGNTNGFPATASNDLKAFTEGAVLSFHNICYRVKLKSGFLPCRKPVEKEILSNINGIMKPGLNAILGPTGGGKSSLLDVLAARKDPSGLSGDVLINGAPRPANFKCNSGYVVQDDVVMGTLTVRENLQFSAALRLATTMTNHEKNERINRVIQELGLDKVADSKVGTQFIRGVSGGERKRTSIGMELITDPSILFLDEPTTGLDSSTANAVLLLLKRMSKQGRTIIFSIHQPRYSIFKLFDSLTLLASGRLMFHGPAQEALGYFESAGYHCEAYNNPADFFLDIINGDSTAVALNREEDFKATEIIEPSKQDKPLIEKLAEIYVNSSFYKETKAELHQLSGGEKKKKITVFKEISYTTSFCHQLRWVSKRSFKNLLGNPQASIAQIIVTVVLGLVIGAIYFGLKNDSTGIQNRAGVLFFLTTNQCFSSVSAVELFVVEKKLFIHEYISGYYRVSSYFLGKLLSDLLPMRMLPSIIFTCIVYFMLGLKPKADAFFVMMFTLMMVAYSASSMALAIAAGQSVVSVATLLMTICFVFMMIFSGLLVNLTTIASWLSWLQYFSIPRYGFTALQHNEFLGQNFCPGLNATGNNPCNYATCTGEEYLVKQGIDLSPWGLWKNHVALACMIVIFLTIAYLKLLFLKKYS

Structure (SMILES): O[C@H]1CNCC[C@@H]1CNc1cc(NCc2ccccc2)n2ncc(C3CC3)c2n1 [APPAMP-002, (3R,4R)-4-(((7-(benzylamino)-3-cyclopropylpyrazolo[1,5-a]pyrimidin-5-yl)amino)methyl)piperidin-3-ol]
- IC50 (human CDK2/cycE1): 0.77 µM
- IC50 (human CDK7/cycH/MAT1): 0.033 µM
- Ratio CDK2/CDK7 (human CDK7/cycH/MAT1): 23
- CDK2/CDK7 Selectivity: Improvement vs. REF-001 (human CDK7/cycH/MAT1): 1.20 fold
- CDK7 Potency: Improvement vs. REF-001 (human CDK7/cycH/MAT1): 1.03 fold
- IC50 (human CDK9/cycK): 0.21 µM
- Free Fraction: Improvement vs. REF-001 [1]: 2.43 fold
- Human PPB [1]: 83%
- fraction unbound at 240 min, 5 µM [1]: 0.17
- efflux ratio at 2 h, 10 µM (MDR1): 5.7
- efflux ratio at 2 h, 10 µM (BCRP): 2

Structure (SMILES): CCc1cnn2c(NCc3ccccc3F)cc(NC[C@H]3CCNC[C@@H]3O)nc12 [APPAMP-001, (3R,4R)-4-(((3-ethyl-7-((2-fluorobenzyl)amino)pyrazolo[1,5-a]pyrimidin-5-yl)amino)methyl)piperidin-3-ol]
- IC50 (human CDK2/cycE1): 0.64 µM
- IC50 (human CDK7/cycH/MAT1): 0.013 µM
- Ratio CDK2/CDK7 (human CDK7/cycH/MAT1): 49
- CDK2/CDK7 Selectivity: Improvement vs. REF-001 (human CDK7/cycH/MAT1): 2.54 fold
- CDK7 Potency: Improvement vs. REF-001 (human CDK7/cycH/MAT1): 2.62 fold
- IC50 (human CDK9/cycK): 0.2 µM
- Free Fraction: Improvement vs. REF-001 [1]: 2.14 fold
- Human PPB [1]: 85%
- fraction unbound at 240 min, 5 µM [1]: 0.15
- efflux ratio at 2 h, 10 µM (MDR1): 2
- efflux ratio at 2 h, 10 µM (BCRP): 5

Structure (SMILES): CC(C)c1cnn2c(NCc3ccccc3)cc(NC[C@H]3CCNC[C@@H]3O)nc12 [REF-001, (3R,4R)-4-(((7-(benzylamino)-3-isopropylpyrazolo[1,5-a]pyrimidin-5-yl)amino)methyl)piperidin-3-ol, reference compound]
- Human PPB [1]: 93%
- fraction unbound at 240 min, 5 µM [1]: 0.07
- effect of the combination with an anti-estrogen on growth of breast cancer cells [2]: synergistic effects

Structure (SMILES): CCc1cnn2c(NCc3cccc(C#N)c3)c(Cl)c(NC[C@H]3CCNC[C@@H]3O)nc12 [APPAMP-004, 3-(((6-chloro-3-ethyl-5-((((3R,4R)-3-hydroxypiperidin-4-yl)methyl)amino)pyrazolo[1,5-a]pyrimidin-7-yl)amino)methyl)benzonitrile]
- IC50 (human CDK2/cycE1): 2.4 µM
- IC50 (human CDK7/cycH/MAT1): 0.0042 µM
- Ratio CDK2/CDK7 (human CDK7/cycH/MAT1): 571
- CDK2/CDK7 Selectivity: Improvement vs. REF-001 (human CDK7/cycH/MAT1): 29.4 fold
- CDK7 Potency: Improvement vs. REF-001 (human CDK7/cycH/MAT1): 8.10 fold
- IC50 (human CDK9/cycK): 0.13 µM

Structure (SMILES): CCc1cnn2c(NCc3cccc(C#N)c3)cc(NC[C@H]3CCNC[C@@H]3O)nc12 [APPAMP-003, 3-(((3-ethyl-5-((((3R,4R)-3-hydroxypiperidin-4-yl)methyl)amino)pyrazolo[1,5-a]pyrimidin-7-yl)amino)methyl)benzonitrile]
- IC50 (human CDK2/cycE1): 0.19 µM
- IC50 (human CDK7/cycH/MAT1): 0.0089 µM
- Ratio CDK2/CDK7 (human CDK7/cycH/MAT1): 21
- CDK2/CDK7 Selectivity: Improvement vs. REF-001 (human CDK7/cycH/MAT1): 1.10 fold
- CDK7 Potency: Improvement vs. REF-001 (human CDK7/cycH/MAT1): 3.82 fold
- IC50 (human CDK9/cycK): 0.022 µM

Reference: US11857552B2, “4-[[(7-aminopyrazolo[1,5-a]pyrimidin-5-yl)amino]methyl]piperidin-3-ol compounds as CDK inhibitors” (Carrick Therapeutics Limited, priority 2017, dated 2024)
